Counter-ions that a name gives are not always drawn.
biological target: T1, MPO (purified from human polynuclear leukocytes) (Homo sapiens, UniProt P05164); experiment: MPO Amplex Red Activity Assay; assay type: biochemical; settings: Table 1, 2 μM H2O2, pH 7.4
T1 construct: purified from human polynuclear leukocytes; purchased Calbiochem/EMD Biosciences; host or cells: human polynuclear leukocytes (natural source)
Summary of the method: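 Potency is given as kinact/KI: kobs values from 600 s progress curves, minus the uninhibited rate, are fit against inhibitor concentration. Reactions use 2 μM H2O2, 30 μM Amplex Red, pH 7.4 phosphate buffer with NaCl, DTPA and 2% DMSO, started with […] human MPO. Readout is resorufin fluorescence, catalase background subtracted.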

T1 sequence (P05164 279-745 limits assumed): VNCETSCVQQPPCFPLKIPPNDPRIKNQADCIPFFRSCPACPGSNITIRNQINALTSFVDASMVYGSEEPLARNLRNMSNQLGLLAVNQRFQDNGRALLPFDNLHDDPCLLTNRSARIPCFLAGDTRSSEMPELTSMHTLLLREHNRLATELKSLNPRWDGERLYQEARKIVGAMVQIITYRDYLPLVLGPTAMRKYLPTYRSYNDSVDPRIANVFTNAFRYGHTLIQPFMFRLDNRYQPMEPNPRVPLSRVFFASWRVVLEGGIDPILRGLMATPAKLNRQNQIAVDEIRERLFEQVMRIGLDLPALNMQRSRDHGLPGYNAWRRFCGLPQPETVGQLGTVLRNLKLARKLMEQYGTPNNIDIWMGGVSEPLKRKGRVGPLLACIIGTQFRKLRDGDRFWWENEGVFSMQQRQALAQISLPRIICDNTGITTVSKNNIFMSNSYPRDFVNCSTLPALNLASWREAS
T1 sequence (P05164 165-273 limits assumed): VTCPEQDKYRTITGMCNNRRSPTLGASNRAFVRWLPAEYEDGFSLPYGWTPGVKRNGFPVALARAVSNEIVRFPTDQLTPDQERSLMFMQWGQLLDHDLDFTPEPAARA

MPO kinact/Ki | Structure (SMILES)
2790 1/s per M | COCCn1c(-c2cccc(C)c2)cc(=O)[nH]c1=S [Example 283, 1-(2-methoxyethyl)-6-(3-methylphenyl)-2-thioxo-2,3-dihydropyrimidin-4(1H)-one]
10500 1/s per M | COc1cc(OC)c(-c2cc(=O)[nH]c(=S)n2CCCN=C(N)N)cc1OC [Example 141, 2-{3-[4-oxo-2-thioxo-6-(2,4,5-trimethoxyphenyl)-3,4-dihydropyrimidin-1(2H)-yl]propyl} guanidine trifluoroacetate]
459 1/s per M | COc1ccc(-c2cc(=O)[nH]c(=S)n2C[C@@H](C)N)c(OC)c1 [Example 175, 1-[(2R)-2-aminopropyl]-6-(2,4-dimethoxyphenyl)-2-thioxo-2,3-dihydropyrimidin-4(1H)-one hydrochloride]
9510 1/s per M | COc1ccc(-c2cc(=O)[nH]c(=S)n2CCOCCN)c(OC)c1 [Example 269, 1-[2-(2-aminoethoxy)ethyl]-6-(2,4-dimethoxyphenyl)-2-thioxo-2,3-dihydropyrimidin-4(1H)-one hydrochloride]
6930 1/s per M | COc1cc(Cl)ccc1-c1cc(=O)[nH]c(=S)n1CCN [Example 62, 1-(2-aminoethyl)-6-(4-chloro-2-methoxyphenyl)-2-thioxo-2,3-dihydropyrimidin-4(1H)-one hydrochloride]
3590 1/s per M | COc1ccc(-c2cc(=O)[nH]c(=S)n2CCS(N)(=O)=O)c(OC)c1 [Example 248, 2-[6-(2,4-dimethoxyphenyl)-4-oxo-2-thioxo-3,4-dihydropyrimidin-1(2H)-yl]ethanesulfonamide]
4830 1/s per M | N=C(N)NCCn1c(-c2ccccc2-n2nccn2)cc(=O)[nH]c1=S [Example 130, 1-(2-{4-oxo-2-thioxo-6-[2-(2H-1,2,3-triazol-2-yl)phenyl]-3,4-dihydropyrimidin-1(2H)-yl}ethyl)guanidine hydrochloride]
33.4 1/s per M | NCCOc1ccccc1-c1cc(=O)[nH]c(=S)n1CCO [Example 52, 6-[2-(2-aminoethoxy)phenyl]-1-(2-hydroxyethyl)-2-thioxo-2,3-dihydropyrimidin-4(1H)-one formate]
10400 1/s per M | COCCn1c(-c2c(OC)ccc3ccccc23)cc(=O)[nH]c1=S [Example 339, 1-(2-methoxyethyl)-6-(2-methoxy-1-naphthyl)-2-thioxo-2,3-dihydropyrimidin-4(1H)-one]
12700 1/s per M | COc1ccc(-c2cc(=O)[nH]c(=S)n2CCCCNC(=N)N)c(OC)c1 [Example 253, 1-{4-[6-(2,4-dimethoxyphenyl)-4-oxo-2-thioxo-3,4-dihydropyrimidin-1(2H)-yl]butyl}guanidine]
1420 1/s per M | COCCn1c(-c2ccc(OC)c(F)c2)cc(=O)[nH]c1=S [Example 315, 6-(3-fluoro-4-methoxyphenyl)-1-(2-methoxyethyl)-2-thioxo-2,3-dihydropyrimidin-4(1H)-one]
2510 1/s per M | COCCn1c(-c2cc(OC)c(Cl)cc2OC)cc(=O)[nH]c1=S [Example 233, 6-(4-chloro-2,5-dimethoxyphenyl)-1-(2-methoxyethyl)-2-thioxo-2,3-dihydropyrimidin-4(1H)-one]
1580 1/s per M | COCCn1c(-c2cccc(F)c2)cc(=O)[nH]c1=S [Example 289, 6-(3-fluorophenyl)-1-(2-methoxyethyl)-2-thioxo-2,3-dihydropyrimidin-4(1H)-one]
13200 1/s per M | COCCn1c(-c2cc(C(C)C)ccc2OC)cc(=O)[nH]c1=S [Example 337, 6-(5-isopropyl-2-methoxyphenyl)-1-(2-methoxyethyl)-2-thioxo-2,3-dihydropyrimidin-4(1H)-one]
3900 1/s per M | COc1ccc(-c2cc(=O)[nH]c(=S)n2C[C@@H](O)CO)c(OC)c1 [Example 204, 1-[(2R)-2,3-dihydroxypropyl]-6-(2,4-dimethoxyphenyl)-2-thioxo-2,3-dihydropyrimidin-4(1H)-one]
1470 1/s per M | COCCn1c(-c2ccccc2C)cc(=O)[nH]c1=S [Example 284, 1-(2-methoxyethyl)-6-(2-methylphenyl)-2-thioxo-2,3-dihydropyrimidin-4(1H)-one]
246 1/s per M | COc1ccc(-c2cc(=O)[nH]c(=S)n2CCOCC(=O)O)c(OC)c1 [Example 246, {2-[6-(2,4-dimethoxyphenyl)-4-oxo-2-thioxo-3,4-dihydropyrimidin-1(2H)-yl]ethoxy}acetic acid]
1050 1/s per M | COc1ccc(-c2cc(=O)[nH]c(=S)n2CCNc2ncc[nH]2)c(OC)c1 [Example 249, 6-(2,4-dimethoxyphenyl)-1-[2-(1H-imidazol-2-ylamino)ethyl]-2-thioxo-2,3-dihydropyrimidin-4(1H)-one]
6930 1/s per M | COc1ccc(Cl)cc1-c1cc(=O)[nH]c(=S)n1CCCO [Example 94, 6-(5-chloro-2-methoxyphenyl)-1-(3-hydroxypropyl)-2-thioxo-2,3-dihydropyrimidin-4(1H)-one]
8970 1/s per M | COc1ncc(C)cc1-c1cc(=O)[nH]c(=S)n1CCO [Example 150, 1-(2-hydroxyethyl)-6-(2-methoxy-5-methylpyridin-3-yl)-2-thioxo-2,3-dihydropyrimidin-4(1H)-one]
1080 1/s per M | COCCn1c(-c2ccc(Cl)cc2)cc(=O)[nH]c1=S [Example 298, 6-(4-chlorophenyl)-1-(2-methoxyethyl)-2-thioxo-2,3-dihydropyrimidin-4(1H)-one]
1280 1/s per M | COc1ccc(-c2cc(=O)[nH]c(=S)n2CCNC(=O)OC(C)(C)C)c(OC)c1 [Example 5, tert-butyl 2-(6-(2,4-dimethoxyphenyl)-4-oxo-2-thioxo-3,4-dihydropyrimidin-1(2H)-yl)ethylcarbamate]
3630 1/s per M | COCCn1c(-c2cc3ccccc3[nH]2)cc(=O)[nH]c1=S [Example 302, 6-(1H-indol-2-yl)-1-(2-methoxyethyl) 2-thioxo-2,3-dihydropyrimidin-4(1H)-one]
25900 1/s per M | COc1ccc(Cl)cc1-c1cc(=O)[nH]c(=S)n1C[C@@H](O)CN [Example 113, 1-[(2S)-3-amino-2-hydroxypropyl]-6-(5-chloro-2-methoxyphenyl)-2-thioxo-2,3-dihydropyrimidin-4(1H)-one trifluoroacetate]
7380 1/s per M | COCCn1c(-c2cc(F)ccc2OC)cc(=O)[nH]c1=S [Example 317, 6-(5-fluoro-2-methoxyphenyl)-1-(2-methoxyethyl)-2-thioxo-2,3-dihydropyrimidin-4(1H)-one]

same assay, conditions: Table 1A, 2 μM H2O2, pH 7.4

MPO kinact/Ki | Structure (SMILES)
11000 1/s per M | COc1ccc(Cl)cc1-c1cc(=O)[nH]c(=S)n1CCCNS(C)(=O)=O [Example 353, N-{3-[6-(5-chloro-2-methoxyphenyl)-4-oxo-2-thioxo-3,4-dihydropyrimidin-1(2H)-yl]propyl}methanesulfonamide]
6250 1/s per M | COc1ccc(-c2cc(=O)[nH]c(=S)n2CC(=O)N(C)CCN)c(OC)c1 [Example 390, N-(2-aminoethyl)-2-[6-(2,4-dimethoxyphenyl)-4-oxo-2-thioxo-3,4-dihydropyrimidin-1(2H)-yl]-N-methylacetamide]
17400 1/s per M | COc1ccc(-c2cc(=O)[nH]c(=S)n2CCC(=O)NCCN)c(OC)c1 [Example 444, N-(2-aminoethyl)-3-[6-(2,4-dimethoxyphenyl)-4-oxo-2-thioxo-3,4-dihydropyrimidin-1(2H)-yl]propanamide]
8740 1/s per M | COC(=O)/N=C(/N)NCCCn1c(-c2cc(Cl)ccc2OC)cc(=O)[nH]c1=S [Example 350, Methyl[amino({3-[6-(5-chloro-2-methoxyphenyl)-4-oxo-2-thioxo-3,4-dihydropyrimidin-1(2H)-yl]propyl}amino)methylidene]carbamate]
1340 1/s per M | NC(=O)Cn1c(-c2cccc3ncccc23)cc(=O)[nH]c1=S [Example 367, 2-[4-oxo-6-(quinolin-5-yl)-2-thioxo-3,4-dihydropyrimidin-1(2H)-yl]acetamide]
9060 1/s per M | COc1ccc(OC)c(-c2cc(=O)[nH]c(=S)n2CC(=O)NCCN)c1 [Example 370, N-(2-aminoethyl)-2-[6-(2,5-dimethoxyphenyl)-4-oxo-2-thioxo-3,4-dihydropyrimidin-1(2H)-yl]acetamide]
1830 1/s per M | NCCn1c(-c2cc3ccccc3s2)cc(=O)[nH]c1=S [Example 354, 1-(2-aminoethyl)-6-(1-benzothiophen-2-yl)-2-thioxo-2,3-dihydropyrimidin-4(1H)-one]
4070 1/s per M | CCNC(=O)Cn1c(-c2ccc(OC)cc2OC)cc(=O)[nH]c1=S [Example 434, 2-[6-(2,4-dimethoxyphenyl)-4-oxo-2-thioxo-3,4-dihydropyrimidin-1(2H)-yl]-N-ethylacetamide]
1540 1/s per M | COc1ccc(-c2cc(=O)[nH]c(=S)n2CCO)cc1OC [Example 355, 6-(3,4-dimethoxyphenyl)-1-(2-hydroxyethyl)-2-thioxo-2,3-dihydropyrimidin-4(1H)-one]
5230 1/s per M | COc1ccc(-c2cc(=O)[nH]c(=S)n2CCNCCO)c(OC)c1 [Example 383, 6-(2,4-dimethoxyphenyl)-1-{2-[(2-hydroxyethyl)amino]ethyl}-2-thioxo-2,3-dihydropyrimidin-4(1H)-one]
12300 1/s per M | COc1ccc(-c2cc(=O)[nH]c(=S)n2CC(=O)NCCCN)c(OC)c1 [Example 442, N-(3-aminopropyl)-2-[6-(2,4-dimethoxyphenyl)-4-oxo-2-thioxo-3,4-dihydropyrimidin-1(2H)-yl]acetamide]

From US9399626B2, “2-thiopyrimidinones” (Pfizer Inc., priority 2011, dated 2016)
